Assay results taken from patent publication US9273077B2, “Phosphorus derivatives as kinase inhibitors” (ARIAD Pharmaceuticals, Inc., priority 2008, dated 2016).

Molecular target: T1, ALK (Homo sapiens, UniProt Q9UM73)
T1 construct: Kinases are expressed as either kinase domains or full length constructs fused to glutathione S-transferase (GST) or polyHistidine tagged fusion proteins; made in house; host or cells: E. coli or Baculovirus-High Five (not specified which for ALK)
Assay: inhibitory potency against ALK (kinase inhibition assay)
Type: biochemical
Description: More specifically, the compounds described herein are screened for kinase inhibition activity as follows. Kinases suitable for use in the following protocol include, but are not limited to: ALK, Jak2, b-Raf, c-Met, Tie-2, FLT3, Abl, Lck, Lyn, Src, Fyn, Syk, Zap-70, Itk, Tec, Btk, EGFR, ErbB2, Kdr, FLT1, Tek, InsR, and AKT.
Kinases are expressed as either kinase domains or full length constructs fused to glutathione S-transferase (GST) or polyHistidine tagged fusion proteins in either E. coli or Baculovirus-High Five expression systems. They are purified to near homogeneity by affinity chromatography as previously described (Lehr et al., 1996; Gish et al., 1995). In some instances, kinases are co-expressed or mixed with purified or partially purified regulatory polypeptides prior to measurement of activity.
Kinase activity and inhibition can be measured by established protocols (see e.g., Braunwalder et al., 1996). In such cases, the transfer of ^33PO4 from ATP to the synthetic substrates poly(Glu, Tyr) 4:1 or poly(Arg, Ser) 3:1 attached to the bioactive surface of microtiter plates is taken as a measure of enzyme activity. After an incubation period, the amount of phosphate transferred is measured by first washing the plate with 0.5% phosphoric acid, adding liquid scintillant, and then counting in a liquid scintillation detector. The IC50 is determined by the concentration of compound that causes a 50% reduction in the amount of ^33P incorporated onto the substrate bound to the plate.
For example, in one method, compounds can be tested for their ability to inhibit kinase activity of baculovirus-expressed ALK using a modification of the ELISA protocol reported for trkA in Angeles, T. S. et al., Anal. Biochem. 1996, 236, 49-55, which is incorporated herein by reference. Phosphorylation of the substrate, phopholipase C-gamma (PLC- ? ) generated as a fusion protein with glutathione-S-transferase (GST) as reported in rotin, D. et al., EMBO J. 1992, 11, 559-567, which is incorporated by reference, can be detected with europium-labeled anti-phosphotyrosine antibody and measured by time-resolved fluorescence (TRF). […] Detection of the phosphorylated product can be performed by adding 100 ? L/well of Eu-N1 labeled PT66 antibody (Perkim Elmer #AD0041). Incubation at 37 degrees C. then proceeds for one hour, followed by addition of 100 ? L enhancement solution (for example Wallac #1244-105). The plate is gently agitated and after thirty minutes, the fluorescence of the resulting solution can be measured (for example using EnVision 2100 (or 2102) multilabel plate reader from Perkin Elmer).
Data analysis can then be performed. IC50 values can be calculated by plotting percent inhibition versus log10 of concentration of compound.
The inhibition of ALK tyrosine kinase activity can also be measured using the recombinant kinase domain of the ALK in analogy to VEDG-R kinase assay described in J. Wood et al., Cancer Res 2000, 60, 2178-2189. In vitro enzyme assays using GST-ALK protein tyrosine kinase can be performed in 96-well plate as a filter binding assay in 20 mMTris.HCl, pH 7.5, 3 mM MgCl2, 10 mM MnCl2, […], 0.1 ? Ci/assay (=30 ? L) [ ? -^33P]-ATP, 2 ? M ATP, 3 ? g/mL poly (Glu, tyr 4:1) Poly-EY (sigma P-0275), 1% DMSO, 25 ng ALK enzyme. Assays can be incubated for 10 min, at ambient temperature. Reactions can be terminated by adding 50 ? L of 125 mM EDTA, and the reaction mixture can be transferred onto a MAIP Multiscreen plate (Millipore, Bedford, Mass.) previously wet with methanol, and rehydrated for 5 minutes with water. Following washing (0.5% H3PO4), plates can be counted in a liquid scintillation counter. IC50 values are calculated by linear regression analysis of the percentage inhibition.

T1 sequence (Q9UM73 19-1620): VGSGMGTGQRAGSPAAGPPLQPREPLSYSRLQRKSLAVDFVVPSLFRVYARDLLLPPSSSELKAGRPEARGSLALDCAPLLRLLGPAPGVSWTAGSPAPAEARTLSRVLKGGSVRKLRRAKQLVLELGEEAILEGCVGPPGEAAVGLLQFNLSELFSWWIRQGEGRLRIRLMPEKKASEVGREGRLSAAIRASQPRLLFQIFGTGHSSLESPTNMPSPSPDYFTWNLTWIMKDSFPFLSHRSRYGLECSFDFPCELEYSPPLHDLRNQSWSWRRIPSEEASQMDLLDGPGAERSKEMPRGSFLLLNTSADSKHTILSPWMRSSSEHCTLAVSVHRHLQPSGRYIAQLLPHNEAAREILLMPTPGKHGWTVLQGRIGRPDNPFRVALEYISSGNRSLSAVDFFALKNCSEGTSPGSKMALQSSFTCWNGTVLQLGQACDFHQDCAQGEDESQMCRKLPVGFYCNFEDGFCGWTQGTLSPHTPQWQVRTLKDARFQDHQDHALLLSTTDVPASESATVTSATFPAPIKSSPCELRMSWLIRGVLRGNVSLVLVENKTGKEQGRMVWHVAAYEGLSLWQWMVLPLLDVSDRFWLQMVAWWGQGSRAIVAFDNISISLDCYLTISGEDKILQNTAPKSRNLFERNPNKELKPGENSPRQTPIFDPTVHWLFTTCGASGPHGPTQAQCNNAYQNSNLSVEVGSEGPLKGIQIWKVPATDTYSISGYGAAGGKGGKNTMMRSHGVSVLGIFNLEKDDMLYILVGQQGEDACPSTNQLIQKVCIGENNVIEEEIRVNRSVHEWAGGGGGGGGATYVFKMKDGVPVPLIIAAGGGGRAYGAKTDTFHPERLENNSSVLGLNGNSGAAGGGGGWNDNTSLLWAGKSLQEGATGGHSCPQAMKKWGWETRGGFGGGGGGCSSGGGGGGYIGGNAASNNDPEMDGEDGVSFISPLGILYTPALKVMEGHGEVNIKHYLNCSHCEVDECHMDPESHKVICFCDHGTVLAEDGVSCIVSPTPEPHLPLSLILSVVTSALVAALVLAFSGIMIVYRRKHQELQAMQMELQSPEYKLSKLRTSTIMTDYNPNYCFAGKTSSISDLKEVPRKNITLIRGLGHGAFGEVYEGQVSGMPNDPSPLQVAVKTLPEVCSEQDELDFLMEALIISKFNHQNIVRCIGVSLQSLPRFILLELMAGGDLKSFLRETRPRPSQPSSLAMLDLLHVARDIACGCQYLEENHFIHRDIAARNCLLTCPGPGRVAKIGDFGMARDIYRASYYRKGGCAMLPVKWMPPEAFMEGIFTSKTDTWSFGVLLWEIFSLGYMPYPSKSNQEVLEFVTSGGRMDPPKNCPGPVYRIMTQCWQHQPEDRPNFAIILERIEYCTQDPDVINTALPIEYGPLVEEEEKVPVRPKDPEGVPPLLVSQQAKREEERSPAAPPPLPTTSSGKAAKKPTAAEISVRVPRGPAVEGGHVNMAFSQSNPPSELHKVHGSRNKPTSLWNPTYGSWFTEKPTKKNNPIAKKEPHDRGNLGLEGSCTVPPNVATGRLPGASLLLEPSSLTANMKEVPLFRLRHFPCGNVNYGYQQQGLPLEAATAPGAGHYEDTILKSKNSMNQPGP

Row | IC50 [nM] | SMILES
1 | > 10 | CP(C)(=O)c1ccc(Nc2ncc(C(F)(F)F)c(NC3CCCO3)n2)cc1 (stereo not shown) [Example 6, N^2-[4-(dimethylphosphoryl)phenyl]-N^4-(tetrahydrofuran-2-yl)-5-(trifluoromethyl)pyrimidine-2,4-diamine]
2 | 2 to 10 | CC(C)S(=O)(=O)c1ccccc1Nc1nc(Nc2ccc(P(C)(C)=O)cc2)ncc1Cl [Example 18, 5-chloro-N^2-[4-(dimethylphosphoryl)phenyl]-N^4-[2-(propan-2-ylsulfonyl)phenyl]pyrimidine-2,4-diamine]
3 | < 2 | COc1cc(P(C)(C)=O)ccc1Nc1nc(Nc2ccccc2S(=O)(=O)C(C)C)c2cc[nH]c2n1 [Example 31, N^2-[4-(dimethylphosphoryl)-2-methoxyphenyl]-N^4-[2-(propan-2-ylsulfonyl)phenyl]-7H-pyrrolo[2,3-d]pyrimidine-2,4-diamine]
4 | < 2 | COc1cc(P(C)(C)=O)ccc1Nc1ncc(Cl)c(Nc2ccccc2S(=O)(=O)C(C)C)n1 [Example 17, 5-chloro-N-[4-(dimethylphosphoryl)-2-methoxyphenyl]-N^4-[2-(propan-2-ylsulfonyl)phenyl]pyrimidine-2,4-diamine]
